Patent US20220031713A1, “METHODS OF TREATING MYELOPROLIFERATIVE DISORDERS” (Impact Biomedicines, Inc., priority 2018, published 2022)
Read-outs that look alike come from different tables or passages of the source.

How the values were obtained:
[1] = system: cellular proliferation driven by mutant JAK2 or mutant MPL; assay: Cellular proliferation driven by mutant JAK2 or mutant MPL; format: cell-based; conditions: cellular assays
JAK2V617F [2] = conditions: non-clinical models of MF; cited from earlier work
[3] = system: intermediate-2 or high-risk MF; conditions: cited from earlier work
[4] = system: intermediate-1 with symptoms, intermediate-2 or high-risk MPN-associated myelofibrosis; conditions: cited from earlier work
[5] = system: hematopoietic progenitors isolated from myeloproliferative neoplasm (MPN) patients; assay: Erythroid colony formation of hematopoietic progenitors; format: cell-based, human
[6] = system: graft-versus-host disease (GVHD); conditions: cited from earlier work
JAK2 signaling = assay: Cellular assay of JAK2 signaling; format: cell-based; conditions: cellular assays
JAK2V617F [7] = conditions: MF patients; cited from earlier work
circulating cytokines = conditions: MF patients not previously treated with JAK inhibitors; cited from earlier work
[8] = system: cells expressing constitutively active JAK2; assay: Apoptosis in cells expressing constitutively active JAK2; format: cell-based; conditions: cellular assays
T cell development = conditions: non-clinical data; cited from earlier work
[9] = system: PD-L1 expression in lymphoma tumor cells; conditions: cited from earlier work
MF = conditions: week 24; previous ruxolitinib treatment; cited from earlier work
myelofibrosis [10] = conditions: week 24, subgroup with prior ruxolitinib, cited from earlier work
[11] = system: intermediate or high-risk MPN-associated myelofibrosis (MF); conditions: at 24 weeks, COMFORT-I; cited from earlier work
myelofibrosis [12] = conditions: cited from earlier work
bone marrow fibrosis = conditions: at 24 months; cited from earlier work
[13] = system: MPN-associated myelofibrosis; conditions: cited from earlier work
[14] = system: PD-L1 expression in MPN myeloid cells; conditions: cited from earlier work
[15] = system: intermediate or high-risk MPN-associated myelofibrosis (MF); conditions: cited from earlier work
[16] = patients previously treated with ruxolitinib
[17] = ruxolitinib therapy, compared with BAT

## Cc1cnc(Nc2ccc(OCCN3CCCC3)cc2)nc1Nc1cccc(S(=O)(=O)NC(C)(C)C)c1 [Compound I, fedratinib]
[1]
  effect on cellular proliferation driven by mutant JAK2 or mutant MPL: inhibits
JAK2V617F [2]
  JAK2V617F frequency: decrease JAK2V617F frequency
[3]; 400 mg daily, all grades
  TEAE diarrhea: 65.6%
  TEAE fatigue: 15.6%
  TEAE nausea: 63.5%
  TEAE peripheral edema: 15.6%
  TEAE vomiting: 41.7%
[3]; 400 mg daily
  TEAE anemia (G3 and G4): 42.7%
  response rate at Cycle 6 as recommended by IWG-MRT (regardless of confirmation): 46.9%
  response rate per primary endpoint (≥35% reduction in spleen volume to End of Cycle 6, confirmed 4 weeks later by MRI): 36.5%
[3]; 400 mg
  TEAEs leading to permanent treatment discontinuation: 27.1%
  subjects achieving a ≥50% reduction in TSS: 36.3%
  subjects reporting Grade 3 or 4 TEAEs: 70.8%
  treatment-emergent serious adverse events (SAEs): 38.5%
[3]; 500 mg daily
  response rate at Cycle 6 as recommended by IWG-MRT (regardless of confirmation): 49.5%
  response rate per primary endpoint (≥35% reduction in spleen volume to End of Cycle 6, confirmed 4 weeks later by MRI): 40.2%
[3]; 500 mg
  TEAEs leading to permanent treatment discontinuation: 36.1%
  subjects achieving a ≥50% reduction in TSS: 34.1%
  subjects reporting Grade 3 or 4 TEAEs: 78.4%
  treatment-emergent serious adverse events (SAEs): 44.3%
[3]; responders from both active groups (400-mg and 500-mg)
  median duration of response (≥35% reduction in spleen volume): 10.4 months
[4]; 97 patients
  patients with at least 1 TEAE (all grades): 97 patients
[4]; all grades
  TEAE anemia: 48.5%
  TEAE diarrhea: 61.9%
  TEAE nausea: 55.7%
  TEAE thrombocytopenia: 26.8%
  TEAE vomiting: 41.2%
[4]; in vivo
  Grade 3 or 4 anemia: Thirty-eight and one-tenth
  Grade 3 or 4 thrombocytopenia: 21.6%
  grade 5 hematologic TEAEs: No grade 5 hematologic TEAEs were reported
  patients reporting Grade 3 or 4 TEAEs: 62.9%
[4]; [16]
  overall spleen response rate (≥35% reduction from baseline in spleen volume to the End of Cycle 6): 55.4%
  subjects achieving a ≥50% reduction in TSS: 25.6%
[5]
  erythroid colony formation of hematopoietic progenitors: inhibits erythroid colony formation
[6]; non-clinical data
  effect on GVHD: weak effect
JAK2 signaling
  effect on JAK2 signaling: inhibits JAK2 signaling
JAK2V617F [7]
  JAK2V617F frequency: decrease JAK2V617F frequency
Circulating cytokines
  effect on circulating cytokines: modulate circulating cytokines
[8]
  apoptosis in cells expressing constitutively active JAK2: induces apoptosis
T cell development
  effect on T cell development: weak effect
[9]
  effect on PD-L1 expression: modulate PD-L1 expression

## N#CCNC(=O)c1ccc(-c2ccnc(Nc3ccc(N4CCOCC4)cc3)n2)cc1 [momelotinib]
MF
  subjects with spleen volume response of 35% or more: 7%

## C1=C/COCc2cc(ccc2OCCN2CCCC2)Nc2nccc(n2)-c2cccc(c2)COC/1 [pacritinib]
Myelofibrosis [10]; 200 mg twice daily
  subjects with spleen volume response of 35% or more: 13%
Myelofibrosis [10]; 400 mg once daily
  subjects with spleen volume response of 35% or more: 6%

## N#CC[C@H](C1CCCC1)n1cc(-c2ncnc3[nH]ccc23)cn1 [ruxolitinib, (3R)-3-cyclopentyl-3-[4-(7H-pyrrolo[2,3-d]pyrimidin-4-yl)pyrazol-1-yl]propanenitrile]
[11]
  proportion of subjects exhibiting a ≥35% reduction in spleen volume as measured by MRI: 41.9%
  subjects with >50% improvement in MFSAF Total Symptom Score (TSS): 45.9%
Myelofibrosis [12]; after ruxolitinib discontinuation
  median survival of relapsed and refractory patients who discontinued ruxolitinib: 6 months
Myelofibrosis [12]; median follow-up of 10 months from stopping ruxolitinib
  patients remaining alive: 34%
Bone marrow fibrosis
  subjects with improvement in bone marrow fibrosis: 15%
[13]; in vivo
  time after therapy initiation within which responses are typically observed: 3-6 months
[13]; [17]
  treatment-associated anemia: 40.4%
  treatment-associated thrombocytopenia: 44.5%
[14]
  effect on PD-L1 expression: modulate PD-L1 expression
[6]; preclinical and clinical data
  effect on graft-versus-host disease (GVHD): suppressing graft-versus-host disease
[15]; at 48 weeks, COMFORT-II
  proportion of subjects exhibiting a ≥35% reduction in spleen volume as measured by MRI: 28.5%
[15]; at 144 weeks, COMFORT-II 3-year follow-up
  Kaplan-Meier estimated probability of survival: 81%
